{"source": "paper PMC8764613", "about": "“Engineering of CYP153A33 With Enhanced Ratio of Hydroxylation to Overoxidation Activity in Whole-Cell Biotransformation of Medium-Chain 1-Alkanols” (Frontiers in Bioengineering and Biotechnology, 2022)", "molecular_target": "T1, CYP153A33 (Marinobacter nauticus, UniProt A1TY82)", "T1 construct": "gene Maqu_0600; co-expressed with P. putida CamA/CamB and E. coli FadL in E. coli BW25113(DE3) delta-fadD; with Putidaredoxin (Pseudomonas putida); Putidaredoxin reductase CamA (Pseudomonas putida)", "T1 sequence (A1TY82 1-470)": "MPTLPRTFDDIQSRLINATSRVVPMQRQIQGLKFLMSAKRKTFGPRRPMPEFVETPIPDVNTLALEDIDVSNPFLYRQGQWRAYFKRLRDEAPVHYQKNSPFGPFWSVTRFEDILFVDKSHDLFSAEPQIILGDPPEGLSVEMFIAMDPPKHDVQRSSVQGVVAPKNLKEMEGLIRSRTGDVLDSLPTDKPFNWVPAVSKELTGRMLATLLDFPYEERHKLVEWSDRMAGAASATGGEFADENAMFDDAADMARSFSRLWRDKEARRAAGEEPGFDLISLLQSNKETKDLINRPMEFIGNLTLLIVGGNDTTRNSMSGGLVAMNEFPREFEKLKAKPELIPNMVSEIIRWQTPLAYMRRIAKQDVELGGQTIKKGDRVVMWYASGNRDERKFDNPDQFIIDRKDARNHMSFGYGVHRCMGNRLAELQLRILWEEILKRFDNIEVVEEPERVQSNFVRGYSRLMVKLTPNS", "assay": "whole-cell biotransformation, GC analysis of products", "type": "cell-based", "conditions": "10 mM substrate, pH 7.0, 30 °C, resting E. coli cells OD600 30 with 1% glucose, CamA/CamB and FadL co-expressed; product alpha,omega-dodecanediol"}
{"smiles": "CCCCCCCCCCCCO", "note": "[A, 1-dodecanol]", "values": [{"measurement": "whole-cell biotransformation, GC analysis of products", "value": "CYP153A33-encoding gene was co-expressed with CamAB redox proteins for the whole-cell biotransformation of 1-dodecanol"}]}
